In PMC9189845, “Structure–Activity Relationships of 8-Hydroxyquinoline-Derived Mannich Bases with Tertiary Amines Targeting Multidrug-Resistant Cancer” (Journal of Medicinal Chemistry, 2022):
Read-outs that look alike come from different tables or passages of the source.

What was measured:
MES-SA/Dx5 cells = test: PrestoBlue viability assay, MES-SA/Dx5 cells (MDR, P-gp positive); settings: for IC50: Homo sapiens; for SR_TQ: selectivity ratio MES-SA vs MES-SA/Dx5, with TQ; for SR: selectivity ratio MES-SA vs MES-SA/Dx5, without TQ
MES-SA cells = test: PrestoBlue viability assay, MES-SA cells; settings: Homo sapiens, MES-SA
A431 cells = test: PrestoBlue viability assay, A431 cells
A431-B1 cells = test: PrestoBlue viability assay, A431-B1 (A431-ABCB1) cells; settings: for SR (A431 / A431-B1): fraction of IC50 in P-gp negative vs positive cells
[1] = MES-SA/Dx5, 72 h, read-out: IC50 / μM MES-SA/Dx5, absence of TQ, 72 h incubation
[2] = MES-SA/Dx5, read-out: IC50 / μM MES-SA/Dx5 (values in parentheses), presence of 1 μM P-gp inhibitor tariquidar (TQ)
[3] = MES-SA/Dx5, read-out: pIC50 value MES-SA/Dx5 + TQ, MES-SA/Dx5 cells, with TQ (converted)
[4] = MES-SA/Dx5, read-out: pIC50 value MES-SA/Dx5, MES-SA/Dx5 cells, without TQ (converted)
[5] = 72 h, read-out: IC50 / μM MES-SA, absence of TQ, 72 h incubation
[6] = read-out: IC50 / μM MES-SA (values in parentheses), presence of 1 μM P-gp inhibitor tariquidar (TQ)
[7] = read-out: pIC50 value MES-SA+TQ, MES-SA cells, with TQ (converted)
[8] = read-out: pIC50 value MES-SA, MES-SA cells, without TQ (converted)
[9] = Homo sapiens, A-431, 72 h, read-out: IC50 / µM A431, 72 h incubation
[10] = Homo sapiens, A-431, read-out: pIC50 A431, SARM figure (converted)
[11] = read-out: IC50 / µM A431, 72 h incubation
[12] = 72 h, read-out: IC50 / µM A431-B1, 72 h incubation
[13] = read-out: IC50 / µM A431-B1, 72 h incubation
[14] = read-out: pIC50 A431-B1, SARM figure (converted)

SMILES	IC50 (A431 cells; [9])	IC50 (A431 cells; [10])	IC50 (A431 cells; [11])	IC50 (A431-B1 cells; [12])	IC50 (A431-B1 cells; [13])	IC50 (A431-B1 cells; [14])	IC50 (MES-SA/Dx5 cells; [1])	IC50 (MES-SA/Dx5 cells; [2])	IC50 (MES-SA/Dx5 cells; [3])	IC50 (MES-SA/Dx5 cells; [4])	SR_TQ (MES-SA/Dx5 cells)	SR (MES-SA/Dx5 cells)	IC50 (MES-SA cells; [5])	IC50 (MES-SA cells; [6])	IC50 (MES-SA cells; [7])	IC50 (MES-SA cells; [8])	SR (MES-SA_TQ / Dx5_TQ) (values in parentheses) (MES-SA/Dx5 cells; fraction of IC50 in P-gp negative vs positive cells, presence of 1 μM TQ)	SR (A431 / A431-B1) (A431-B1 cells)
CCN(CC)Cc1ccc2cccnc2c1O [Compound 1]	14.8 ± 0.41 µM	13.5 µM	13.4 ± 0.18 µM	4.51 ± 0.73 µM	4.99 ± 0.52 µM	5.01 µM	1.64 ± 0.24 µM	3.04 µM	3.02 µM	1.62 µM	1.69	4.49	7.35 ± 1.28 µM	5.15 µM	5.13 µM	7.24 µM		
Oc1c(CN2CCCC2)ccc2cccnc12 [Compound 2]	18.2 ± 1.02 µM	16.6 µM	17.1 ± 4.65 µM			3.16 µM	1.47 ± 0.25 µM	2.82 µM	2.82 µM	1.45 µM	1.41	3.16	4.64 ± 0.82 µM	3.98 µM	3.98 µM	4.57 µM		
OCCN(CCO)Cc1cc(Cl)c2cccnc2c1O [Compound 6]	73.6 ± 0.75 µM			20.5 ± 0.95 µM			5.28 ± 1.28 µM	15.4 µM		5.13 µM	1.64	5.91	31.2 ± 4.04 µM	25.3 µM	25.1 µM	30.9 µM	1.64	3.60
Oc1c(CN2CCOCC2)ccc2cccnc12 [Compound 8]	14.5 ± 0.32 µM			6.51 ± 0.65 µM			4.33 ± 0.31 µM			4.27 µM		1.75	7.55 ± 0.91 µM			7.41 µM		2.23
Oc1c(CN2CCCC2)cc(Cl)c2cccnc12 [Compound 15]	7.45 ± 0.15 µM	7.41 µM		1.97 ± 0.25 µM		1.95 µM	0.3 ± 0.06 µM	3.21 µM	3.16 µM	0.295 µM	1.35	11.53	3.46 ± 0.51 µM	4.34 µM	4.27 µM	3.39 µM		
COCc1cc(CN2CCCCC2)c(O)c2ncccc12 [Compound 21]	22.6 ± 4.32 µM	22.4 µM		3.53 ± 0.14 µM		3.55 µM	0.92 ± 0.11 µM	7.59 ± 0.08 µM	7.59 µM	0.912 µM	1.26	10.19	9.35 ± 0.61 µM	9.56 ± 0.39 µM	9.55 µM	9.33 µM		

Continued, in another order:

IC50 (A431 cells; [9])	IC50 (A431 cells; [10])	IC50 (A431 cells; [11])	IC50 (A431-B1 cells; [12])	IC50 (A431-B1 cells; [13])	IC50 (A431-B1 cells; [14])	SMILES	IC50 (MES-SA/Dx5 cells; [1])	IC50 (MES-SA/Dx5 cells; [2])	IC50 (MES-SA/Dx5 cells; [3])	IC50 (MES-SA/Dx5 cells; [4])	SR_TQ (MES-SA/Dx5 cells)	SR (MES-SA/Dx5 cells)	IC50 (MES-SA cells; [5])	IC50 (MES-SA cells; [6])	IC50 (MES-SA cells; [7])	IC50 (MES-SA cells; [8])	SR (MES-SA_TQ / Dx5_TQ) (values in parentheses) (MES-SA/Dx5 cells; fraction of IC50 in P-gp negative vs positive cells, presence of 1 μM TQ)	SR (A431 / A431-B1) (A431-B1 cells)
9.29 ± 1.55 µM	9.33 µM	10 ± 4.2 µM	1.58 ± 1.11 µM	1.52 ± 0.32 µM	1.48 µM	CCN(CC)Cc1cc(Cl)c2cccnc2c1O [Compound 5]	0.35 ± 0.06 µM	1.82 µM	1.82 µM	0.347 µM	1.78	8.44	2.97 ± 0.33 µM	3.25 µM	3.24 µM	2.95 µM		
9.79 ± 1.13 µM			9.18 ± 0.58 µM			O=[N+]([O-])c1cc(CN(CCO)CCO)c(O)c2ncccc12 [Compound 7]	4.33 ± 0.2 µM			4.37 µM		1.49	6.46 ± 0.49 µM			6.46 µM		1.07
11.2 ± 0.37 µM	11.2 µM	11.2 ± 0.83 µM	4.57 ± 0.2 µM		4.57 µM	CCCCOCc1cc(CN2CCN(C)CC2)c(O)c2ncccc12 [Compound 10]	2.12 ± 0.15 µM	3.92 µM	3.8 µM	2.14 µM	1.28	3.4	7.23 ± 0.14 µM	5 µM	5.01 µM	7.24 µM		
> 100 µM			58.2 ± 0.65 µM			CC(=O)Nc1cc(CN2CCCCC2)c(O)c2ncccc12 [Compound 11]	19.4 ± 2.33 µM			19.1 µM		0.64	12.4 ± 1.67 µM			12.3 µM		
53.2 ± 6.49 µM	52.5 µM		4.05 ± 0.07 µM		4.07 µM	COCc1cc(CN2CCCC2)c(O)c2ncccc12 [Compound 17]	1.37 ± 0.26 µM	3.59 ± 0.53 µM	3.55 µM	1.35 µM	2.92	8.09	11.1 ± 1.78 µM	10.5 ± 0.17 µM	10.5 µM	11 µM		
25.2 ± 8.88 µM	23.4 µM		4.17 ± 1.49 µM		3.89 µM	CCOCc1cc(CN2CCCCC2)c(O)c2ncccc12 [Compound 22]	0.79 ± 0.14 µM	7.08 ± 0.23 µM	7.08 µM	0.776 µM	1.29	11.12	8.77 ± 1.07 µM	9.13 ± 0.32 µM	9.12 µM	8.71 µM		
					52.5 µM	Oc1c(C(c2cccnc2)N2CCCC2)ccc2cccnc12 (stereo not drawn) [Compound 85]	23.3 µM			23.4 µM		1.76	41 µM			40.7 µM		
